Assays:
Assay type in all cases: physicochemical
[1] = Thermal stability: 4-Epi-Tigecycline and total impurities at ambient conditions and after 7 days at 80° C.
Source text: Tigecycline must be available in a physical stable form as well, in order to avoid degradation and as a consequence the building of undesired byproducts.

[2] = Water solubility testing (saturated solution in distilled water, UV-vis at 347 nm)
Protocol: The finished dosage form contains lyophilized amorphous Tigecycline respectively Tigecycline hydrochloride. Before lyophilizing, Tigecycline respectively Tigecycline hydrochloride is dissolved in water, thus water solubility is an important factor to consider.
A UV-vis Lambda 35 spectrophotometer (Perkin-Elmer) was used (λ=347 nm, 1.0 cm quartz cells). Perkin Elmer® UV Win Lab-5.1 software was used.
A saturated solution of Tigecycline respectively Tigecycline hydrochloride in distilled water was prepared and the suspension was stirred at room temperature for 30 minutes with a stirring speed of 1000 U/min. The suspension was filtrated through a 0.45 μm filter. Finally the resulting solution was diluted 10000-fold and measured against water at a wavelength of 347 nm.

[3] = Conversion into other crystalline or amorphous forms on storing at elevated temperature; conditions: after storing for 7 days at 80° C.
[4] = Water content on storage at defined relative humidity at 25° C.
Protocol: The water content of crystalline form A of Tigecycline hydrochloride may vary from about 0-6.0% e.g. the water content is 0% when stored at 1.7% relative humidity at 25° C., 2.7% when stored at 42.7% relative humidity at 25° C. and 5.8% when stored at 80% relative humidity at 25° C.

[5] = Storage stability of lyophilized amorphous Tigecycline hydrochloride at room temperature; conditions: stored for about 9 months at room temperature
Protocol: Moreover crystalline forms A and B of Tigecycline hydrochloride of the present invention show better physical stability than amorphous Tigecycline hydrochloride. For example amorphous Tigecycline hydrochloride was prepared by lyophilization and stored for about 9 months at room temperature. […] Therefore amorphous Tigecycline hydrochloride is not suitable as an intermediate for the formulation of an anti-infective medicament, due to the low stability.

[6] = after storing for 7 days at 80° C.

CN(C)c1cc(NC(=O)CNC(C)(C)C)c(O)c2c1C[C@H]1C[C@H]3[C@H](N(C)C)C(O)=C(C(N)=O)C(=O)[C@@]3(O)C(O)=C1C2=O [WO 2007/127292 I, (4S,4aS,5aR,12aS)-4,7-Bis(dimethylamino)-9-[[[(1,1-dimethylethyl)amino]acetyl]amino]-1,4,4a,5,5a,6,11,12a-octahydro-3,10,12,12a-tetrahydroxy-1,11-dioxo-2-naphthacenecarboxamide]
4-EPI-TIGECYCLINE AT AMBIENT CONDITIONS ([1]; listed as WO2007/127792 I): 0.34
TOTAL IMPURITIES AT AMBIENT CONDITIONS ([1]; listed as WO2007/127792 I): 0.59

CN(C)c1cc(NC(=O)CNC(C)(C)C)c(O)c2c1C[C@H]1C[C@H]3[C@H](N(C)C)C(O)=C(C(N)=O)C(=O)[C@@]3(O)C(O)=C1C2=O [WO 2007/127292 II, (4S,4aS,5aR,12aS)-4,7-Bis(dimethylamino)-9-[[[(1,1-dimethylethyl)amino]acetyl]amino]-1,4,4a,5,5a,6,11,12a-octahydro-3,10,12,12a-tetrahydroxy-1,11-dioxo-2-naphthacenecarboxamide]
4-EPI-TIGECYCLINE AT AMBIENT CONDITIONS ([1]; listed as WO2007/127792 II): 0.17
TOTAL IMPURITIES AT AMBIENT CONDITIONS ([1]; listed as WO2007/127792 II): 0.24

CN(C)c1cc(NC(=O)CNC(C)(C)C)c(O)c2c1C[C@H]1C[C@H]3[C@H](N(C)C)C(O)=C(C(N)=O)C(=O)[C@@]3(O)C(O)=C1C2=O.Cl [Form A, Tigecycline hydrochloride]
water solubility compared with the other crystalline forms (in words) [2]: highest water solubility
solubility thermodynamic at 30 min ([2]; water, saturated solution in distilled water, stirred 30 minutes at room temperature, filtered 0.45 μm, read-out: Water solubility, CONCENTRATION): 503 mg/mL
change in 4-Epi-Tigecycline content (in words) [1, 6]: practically did not change
change in total impurities (in words) [1, 6]: low
4-EPI-TIGECYCLINE AT AMBIENT CONDITIONS ([1]; listed as A, hydrochloride): 0.84
TOTAL IMPURITIES AT AMBIENT CONDITIONS ([1]; listed as A, hydrochloride): 1.07
conversion into other crystalline or amorphous forms [3]: did not convert
water content, span of variation ([4]; may vary, depending on relative humidity): 0-6.0%
water content ([4]; stored at 1.7% relative humidity at 25° C.): 0%
water content ([4]; stored at 42.7% relative humidity at 25° C.): 2.7%
water content ([4]; stored at 80% relative humidity at 25° C.): 5.8%

CN(C)c1cc(NC(=O)CNC(C)(C)C)c(O)c2c1C[C@H]1C[C@H]3[C@H](N(C)C)C(O)=C(C(N)=O)C(=O)[C@@]3(O)C(O)=C1C2=O [WO 2006/128150 III, (4S,4aS,5aR,12aS)-4,7-Bis(dimethylamino)-9-[[[(1,1-dimethylethyl)amino]acetyl]amino]-1,4,4a,5,5a,6,11,12a-octahydro-3,10,12,12a-tetrahydroxy-1,11-dioxo-2-naphthacenecarboxamide]
Water solubility, CONCENTRATION ([2]; saturated solution in distilled water, stirred 30 minutes at room temperature, filtered 0.45 μm): 174 mg/mL
4-EPI-TIGECYCLINE 7 DAYS AT 80° C. ([1]; after storing 7 days at 80° C.): 2.18
TOTAL IMPURITIES 7 DAYS AT 80° C. ([1]; after storing 7 days at 80° C.): 4.46%
4-EPI-TIGECYCLINE AT AMBIENT CONDITIONS [1]: 0.16
TOTAL IMPURITIES AT AMBIENT CONDITIONS [1]: 0.16%

CN(C)c1cc(NC(=O)CNC(C)(C)C)c(O)c2c1C[C@H]1C[C@H]3[C@H](N(C)C)C(O)=C(C(N)=O)C(=O)[C@@]3(O)C(O)=C1C2=O [WO 2006/128150 I, (4S,4aS,5aR,12aS)-4,7-Bis(dimethylamino)-9-[[[(1,1-dimethylethyl)amino]acetyl]amino]-1,4,4a,5,5a,6,11,12a-octahydro-3,10,12,12a-tetrahydroxy-1,11-dioxo-2-naphthacenecarboxamide]
change in total impurities (in words) [1, 6]: tremendous increase
4-EPI-TIGECYCLINE AT AMBIENT CONDITIONS [1]: 0.36
TOTAL IMPURITIES AT AMBIENT CONDITIONS [1]: 0.75

CN(C)c1cc(NC(=O)CNC(C)(C)C)c(O)c2c1C[C@H]1C[C@H]3[C@H](N(C)C)C(O)=C(C(N)=O)C(=O)[C@@]3(O)C(O)=C1C2=O [WO 2006/128150 V, (4S,4aS,5aR,12aS)-4,7-Bis(dimethylamino)-9-[[[(1,1-dimethylethyl)amino]acetyl]amino]-1,4,4a,5,5a,6,11,12a-octahydro-3,10,12,12a-tetrahydroxy-1,11-dioxo-2-naphthacenecarboxamide]
4-EPI-TIGECYCLINE AT AMBIENT CONDITIONS [1]: <0.05
TOTAL IMPURITIES AT AMBIENT CONDITIONS [1]: 0.22

CN(C)c1cc(NC(=O)CNC(C)(C)C)c(O)c2c1C[C@H]1C[C@H]3[C@H](N(C)C)C(O)=C(C(N)=O)C(=O)[C@@]3(O)C(O)=C1C2=O.Cl [Form B, Tigecycline hydrochloride]
Water solubility, CONCENTRATION ([2]; saturated solution in distilled water, stirred 30 minutes at room temperature, filtered 0.45 μm, hydrochloride): 323 mg/mL
4-EPI-TIGECYCLINE AT AMBIENT CONDITIONS ([1]; listed as B, hydrochloride): 0.93
TOTAL IMPURITIES AT AMBIENT CONDITIONS ([1]; listed as B, hydrochloride): 1.91

CN(C)c1cc(NC(=O)CNC(C)(C)C)c(O)c2c1C[C@H]1C[C@H]3[C@H](N(C)C)C(O)=C(C(N)=O)C(=O)[C@@]3(O)C(O)=C1C2=O [WO 2006/128150 IV, (4S,4aS,5aR,12aS)-4,7-Bis(dimethylamino)-9-[[[(1,1-dimethylethyl)amino]acetyl]amino]-1,4,4a,5,5a,6,11,12a-octahydro-3,10,12,12a-tetrahydroxy-1,11-dioxo-2-naphthacenecarboxamide]
4-EPI-TIGECYCLINE AT AMBIENT CONDITIONS [1]: 0.23
TOTAL IMPURITIES AT AMBIENT CONDITIONS [1]: 0.40

CN(C)c1cc(NC(=O)CNC(C)(C)C)c(O)c2c1C[C@H]1C[C@H]3[C@H](N(C)C)C(O)=C(C(N)=O)C(=O)[C@@]3(O)C(O)=C1C2=O.Cl [amorphous Tigecycline hydrochloride, Tigecycline hydrochloride]
4-Epi-Tigecycline content [5]: 19.56%
total impurities [5]: 21.55%

CN(C)c1cc(NC(=O)CNC(C)(C)C)c(O)c2c1C[C@H]1C[C@H]3[C@H](N(C)C)C(O)=C(C(N)=O)C(=O)[C@@]3(O)C(O)=C1C2=O [WO 2006/128150 II, (4S,4aS,5aR,12aS)-4,7-Bis(dimethylamino)-9-[[[(1,1-dimethylethyl)amino]acetyl]amino]-1,4,4a,5,5a,6,11,12a-octahydro-3,10,12,12a-tetrahydroxy-1,11-dioxo-2-naphthacenecarboxamide]
change in total impurities (in words) [1, 6]: tremendous increase
4-EPI-TIGECYCLINE AT AMBIENT CONDITIONS [1]: 1.04
TOTAL IMPURITIES AT AMBIENT CONDITIONS [1]: 1.60

— patent US8252946B2, “Crystalline forms of tigecycline hydrochloride” (Sandoz AG, priority 2007, dated 2012)
